Measurements taken from US6872718B1, “Tricyclic dihydrobenzofuran derivatives, process for the preparation thereof and agents” (Takeda Chemical Industries, Ltd., priority 1999, dated 2005).
Structures can show the parent of a compound that is named as a salt.

System: lipoperoxide produced in brain homogenate
Assay: Inhibitory effect on lipid peroxidation in rat cerebral cortical homogenates (thiobarbituric acid method)
Type: biochemical
Conditions: rat cerebral cortical homogenate supernatant, 37° C. for 30 minutes, absorbance at 532 nm
Method: Inhibitory Effect on Lipid Peroxidation in Rat Cerebral Cortical Homogenates and Orally Treated Mice
Quantitative determination of lipoperoxide produced in brain homogenate was performed according to the method of Stocks et al. (Clin. Sci. Mol. Med. 47-215(1974)). As animals, brains of Jcl. Wistar male rats, 10-13 weeks age, were used. Rat cerebral cortices were obtained after decapitation, homogenized in an ice-cooled phosphate saline buffer (50 mM Ph 7.4) (Nichion Microhomogenizer, S-310E), centrifuged at 10,000 g for 10 minutes (Hitachi CF15D type, RT15A6 Anglerotor), and the supernatant was used in a test. This supernatant was diluted 3-fold with the same buffer. To this 1 mL were added […] of test drugs dissolved in dimethyl sulfoxide (DMSO) to the final concentration of 0.0125, 0.025, 0.05, 0.10, 0.20, 0.40, 0.80 and 1.60 μM, respectively, which was incubated at 37° C. for 30 minutes. The reaction was stopped by addition of 200 μL of 35% perchloric acid, and centrifuged at 13,000 g for 10 minutes. To 1 mL of this supernatant was added 0.5 mL of 2-thiobarbituric acid (500 mg/100 mL) dissolved in 50% acetic acid, heated to boil at 95° C. for 15 minutes, which was determined by the absorbance at 532 nm. […]

| Structure (SMILES) | IC50 |
| --- | --- |
| Cc1c2c(c(C)c3c1NCC3)OC(C)(CN1CCC(c3ccccc3)CC1)C2 (centres unmarked) [Example 11, 3,5,6,7-Tetrahydro-2,4,8-trimethyl-2-[(4-phenylpiperidino)methyl]-2H-furo[2,3-f]indole] | 67 nM |
| Cc1c2c(c(C)c3c1NCC3)OC(C)(CN1CCC(NC(c3ccccc3)c3ccccc3)CC1)C2 (centres unmarked) [Example 18, N-(Diphenylmethyl)-1-[(3,5,6,7-tetrahydro-2,4,8-trimethyl-2H-furo[2,3-f]indol-2-yl)methyl]-4-piperidinamine trihydrochloride] | 360 nM |
